Where two headings read alike, the source gives them in different places.
Key:
[1] = target: p70S6K (Homo sapiens, UniProt P23443); assay: Luciferase-coupled chemiluminescence kinase assay (ATP consumption); format: biochemical
In short: (§1)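 Activity is read as ATP depletion: luciferase-luciferin reagent added after a 3 h ambient-temperature kinase reaction, with total ATP use limited to 25-60%. Before ATP addition, 2.5-5 nM kinase and compound were preincubated 30 min in Tris pH 7.5/MgCl2/TX-100/DTT buffer; […].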

[2] = target: AktK (Homo sapiens, UniProt P31749); assay: as above; format: biochemical; details: read-out: AKT-1 IC50
In short: as §1

Chain of AktK (P31749 whole entry): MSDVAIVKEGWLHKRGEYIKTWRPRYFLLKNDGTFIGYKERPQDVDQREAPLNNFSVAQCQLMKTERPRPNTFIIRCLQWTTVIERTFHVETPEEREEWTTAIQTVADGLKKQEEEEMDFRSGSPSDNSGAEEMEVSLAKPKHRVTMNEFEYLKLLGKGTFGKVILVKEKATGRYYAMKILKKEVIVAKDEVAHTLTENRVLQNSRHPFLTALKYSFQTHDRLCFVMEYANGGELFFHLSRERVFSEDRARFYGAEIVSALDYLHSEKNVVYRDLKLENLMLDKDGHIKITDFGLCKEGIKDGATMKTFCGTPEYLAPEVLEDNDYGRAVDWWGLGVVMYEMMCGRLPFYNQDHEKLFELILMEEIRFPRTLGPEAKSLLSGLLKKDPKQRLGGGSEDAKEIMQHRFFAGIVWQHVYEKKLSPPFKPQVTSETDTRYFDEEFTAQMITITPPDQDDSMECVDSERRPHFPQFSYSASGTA
Chain of p70S6K (P23443 whole entry): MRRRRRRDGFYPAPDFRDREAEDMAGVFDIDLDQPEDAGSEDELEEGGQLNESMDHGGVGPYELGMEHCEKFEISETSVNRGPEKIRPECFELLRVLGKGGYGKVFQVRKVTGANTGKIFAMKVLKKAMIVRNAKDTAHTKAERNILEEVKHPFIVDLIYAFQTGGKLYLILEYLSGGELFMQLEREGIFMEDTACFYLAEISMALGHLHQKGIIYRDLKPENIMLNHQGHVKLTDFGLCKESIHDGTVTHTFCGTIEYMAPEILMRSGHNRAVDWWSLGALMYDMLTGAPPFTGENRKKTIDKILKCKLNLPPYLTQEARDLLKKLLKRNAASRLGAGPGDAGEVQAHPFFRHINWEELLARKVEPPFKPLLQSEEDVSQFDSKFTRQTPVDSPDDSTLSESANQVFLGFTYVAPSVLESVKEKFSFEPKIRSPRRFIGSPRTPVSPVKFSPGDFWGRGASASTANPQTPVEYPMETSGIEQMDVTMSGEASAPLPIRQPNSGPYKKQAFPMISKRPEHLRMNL

Q: With `Cc1c(OCC2CCN(C)CC2)cc(Cl)cc1N1CCN(c2ncnc3[nH]nc(C(F)(F)F)c23)CC1` [Entry 90, 4-[4-(5-chloro-2-methyl-3-{[(1-methylpiperidin-4-yl)methyl]oxy}phenyl)piperazin-1-yl]-3-(trifluoro-methyl)-1H-pyrazolo[3,4-d]pyrimidine] as the molecule, how does the IC50 ([1]; Table 1, class symbols per key) read?
A: < 100 nM

Q: And the IC50 ([2]; Table 1, class symbols per key)?
A: 100 to 1000 nM

Q: Which IC50 [1] does the source give for `Cc1ccc(Cl)cc1N1CCN(c2ncnc3[nH]nc(-c4ccncc4)c23)CC1` [Entry 364, 4-[4-(5-chloro-2-methylphenyl)piperazin-1-yl]-3-pyridin-4-yl-1H-pyrazolo[3,4-d]pyrimidine] here?
A: < 100 nM

Q: And the IC50 [2]?
A: 1000 to 10000 nM

Q: How did the IC50 ([1]; Table 1, class symbols per key) turn out when `Cc1noc(-c2cc(NCCN3CCCC3)c(C)c(N3CCN(c4ncnc5[nH]nc(Br)c45)CC3)c2)n1` [Entry 242, 3-[4-(3-bromo-1H-pyrazolo[3,4-d]pyrimidin-4-yl)piperazin-1-yl]-2-methyl-5-(3-methyl-1,2,4-oxadiazol-5-yl)-N-(2-pyrrolidin-1-ylethyl)aniline] was run?
A: < 100 nM

Q: And the IC50 ([2]; Table 1, class symbols per key)?
A: < 100 nM

Q: How did the IC50 ([1]; Table 1, class symbols per key) turn out when `Cc1c(NCCN2CCCC2)cc(C#CC(C)(C)C)cc1N1CCN(c2ncnc3[nH]nc(Br)c23)CC1` [Entry 238, 3-[4-(3-bromo-1H-pyrazolo[3,4-d]pyrimidin-4-yl)piperazin-1-yl]-5-(3,3-dimethylbut-1-yn-1-yl)-2-methyl-N-(2-pyrrolidin-1-ylethyl)aniline] was run?
A: < 100 nM

Q: What about the IC50 ([2]; Table 1, class symbols per key) of the same molecule?
A: < 100 nM

Q: For `Clc1cccc(N2CCN(c3ncnc4[nH]ccc34)CC2)c1` [Entry 296, 4-[4-(3-chlorophenyl)piperazin-1-yl]-7H-pyrrolo[2,3-d]pyrimidine], which IC50 [1] is on record?
A: 100 to 1000 nM

Q: What about the IC50 [2] of the same molecule?
A: 1000 to 10000 nM

Q: For `Clc1cc(NCCN2CCCC2)cc(N2CCN(c3ncnc4[nH]nc(Br)c34)CC2)c1` [Entry 267, 3-[4-(3-bromo-1H-pyrazolo[3,4-d]pyrimidin-4-yl)piperazin-1-yl]-5-chloro-N-(2-pyrrolidin-1-ylethyl)aniline], which IC50 ([1]; Table 1, class symbols per key) is on record?
A: < 100 nM

Q: What about the IC50 ([2]; Table 1, class symbols per key) of the same molecule?
A: < 100 nM

Q: What does the source list for `CCN(CC)CCOc1cc(Cl)cc(N2CCN(c3ncnc4[nH]nc(C(F)(F)F)c34)CC2)c1C` [Entry 34, 2-[(5-chloro-2-methyl-3-{4-[3-(trifluoromethyl)-1H-pyrazolo[3,4-d]pyrimidin-4-yl]piperazin-1-yl}phenyl)oxy]-N,N-diethylethanamine]?
A: IC50 ([1]; Table 1, class symbols per key): < 100 nM; IC50 ([2]; Table 1, class symbols per key): 100 to 1000 nM

Q: With `Cc1ccc(Cl)cc1N1CCN(c2ncnc3[nH]nc(-c4ccc(F)cc4)c23)CC1` [Entry 357, 4-[4-(5-chloro-2-methylphenyl)piperazin-1-yl]-3-(4-fluorophenyl)-1H-pyrazolo[3,4-d]pyrimidine] as the molecule, how does the IC50 [1] read?
A: 100 to 1000 nM

Q: What about the IC50 [2] of the same molecule?
A: 1000 to 10000 nM

Q: Which IC50 ([1]; Table 1, class symbols per key) does the source give for `Cc1c(NCCN2CCCC2)cc(OCC(C)C)cc1N1CCN(c2ncnc3[nH]nc(Br)c23)CC1` [Entry 184, 3-[4-(3-bromo-1H-pyrazolo[3,4-d]pyrimidin-4-yl)piperazin-1-yl]-2-methyl-5-[(2-methyl-propyl)oxy]-N-(2-pyrrolidin-1-ylethyl)aniline] here?
A: < 100 nM

Q: What about the IC50 ([2]; Table 1, class symbols per key) of the same molecule?
A: < 100 nM

Q: Which IC50 [1] does the source give for `CCc1n[nH]c2ncnc(N3CCN(c4cc(Cl)c(OC)cc4C)CC3)c12` [Entry 390, 4-{4-[5-chloro-2-methyl-4-(methyloxy)phenyl]piperazin-1-yl}-3-ethyl-1H-pyrazolo[3,4-d]pyrimidine] here?
A: < 100 nM

Q: And the IC50 [2]?
A: 1000 to 10000 nM

Q: Which IC50 [1] does the source give for `COc1ccccc1N1CCN(c2ncnc3[nH]cnc23)CC1` [Entry 307, 6-{4-[2-(methyloxy)phenyl]piperazin-1-yl}-9H-purine] here?
A: 100 to 1000 nM

Q: And the IC50 [2]?
A: ≥ 10000 nM

Q: With `CCOC(=O)c1cnc(C(F)(F)F)nc1N1CCN(c2ncnc3[nH]nc(CC)c23)CC1` [Entry 112, ethyl 4-[4-(3-ethyl-1H-pyrazolo[3,4-d]pyrimidin-4-yl)piperazin-1-yl]-2-(trifluoromethyl)pyrimidine-5-carboxylate] as the molecule, how does the IC50 ([1]; Table 1, class symbols per key) read?
A: 1000 to 10000 nM

Q: And the IC50 ([2]; Table 1, class symbols per key)?
A: ≥ 10000 nM

Q: With `COC(=O)/C=C/c1n[nH]c2ncnc(N3CCN(c4cc(Cl)ccc4C)CC3)c12` [Entry 372, methyl (2E)-3-{4-[4-(5-chloro-2-methylphenyl)piperazin-1-yl]-1H-pyrazolo[3,4-d]pyrimidin-3-yl}prop-2-enoate] as the molecule, how does the IC50 [1] read?
A: < 100 nM

Q: And the IC50 [2]?
A: 1000 to 10000 nM

Q: What does the source list for `Cc1c(NCCN(C)C)cc(OCC(C)C)cc1N1CCN(c2ncnc3[nH]nc(Br)c23)CC1` [Entry 195, N′-{3-[4-(3-bromo-1H-pyrazolo[3,4-d]pyrimidin-4-yl)piperazin-1-yl]-2-methyl-5-[(2-methylpropyl)ox-y]phenyl}-N,N-dimethylethane-1,2-diamine]?
A: IC50 ([1]; Table 1, class symbols per key): < 100 nM; IC50 ([2]; Table 1, class symbols per key): < 100 nM

Q: Which results are given for `CCc1n[nH]c2ncnc(N3CCN(c4ccc(OCCN5CCCCC5)c(Cl)c4)CC3)c12` [Entry 350, 4-(4-{3-chloro-4-[(2-piperidin-1-ylethyl)oxy]phe-nyl}piperazin-1-yl)-3-ethyl-1H-pyrazolo[3,4-d]pyrimidine]?
A: IC50 [1]: 1000 to 10000 nM; IC50 [2]: ≥ 10000 nM

Q: Which IC50 ([1]; Table 1, class symbols per key) does the source give for `Brc1n[nH]c2ncnc(N3CCN(c4ccccc4)CC3)c12` [Entry 152, 3-bromo-4-(4-phenylpiperazin-1-yl)-1H-pyrazolo[3,4-d]pyrimidine] here?
A: < 100 nM

Q: And the IC50 ([2]; Table 1, class symbols per key)?
A: ≥ 10000 nM

Q: What does the source list for `Cc1c(NCCN2CCCC2)cc(C#Cc2ccccc2)cc1N1CCN(c2ncnc3[nH]nc(Br)c23)CC1` [Entry 235, 3-[4-(3-bromo-1H-pyrazolo[3,4-d]pyrimidin-4-yl)piperazin-1-yl]-2-methyl-5-(phenylethynyl)-N-(2-pyrrolidin-1-ylethyl)aniline]?
A: IC50 ([1]; Table 1, class symbols per key): < 100 nM; IC50 ([2]; Table 1, class symbols per key): 100 to 1000 nM

Q: How did the IC50 ([1]; Table 1, class symbols per key) turn out when `CCc1n[nH]c2ncnc(N3CCN(c4cccc(OC)c4)CC3)c12` [Entry 99, 3-ethyl-4-{4-[3-(methyloxy)phenyl]piperazin-1-yl}-1H-pyrazolo[3,4-d]pyrimidine] was run?
A: 100 to 1000 nM

Q: What about the IC50 ([2]; Table 1, class symbols per key) of the same molecule?
A: ≥ 10000 nM

Q: For `Cc1ccc(Cl)cc1N1CCN(c2ncnc3[nH]nc(Br)c23)C[C@@H]1C` [Entry 164, 3-bromo-4-[(3S)-4-(5-chloro-2-methylphenyl)-3-methylpiperazin-1-yl]-1H-pyrazolo[3,4-d]pyrimidine], which IC50 ([1]; Table 1, class symbols per key) is on record?
A: < 100 nM

Q: And the IC50 ([2]; Table 1, class symbols per key)?
A: 100 to 1000 nM

Q: Which results are given for `CCc1n[nH]c2ncnc(N3CCN(c4cc(Cl)cc(OCCCN5CCOCC5)c4C)CC3)c12` [Entry 26, 4-(4-{5-chloro-2-methyl-3-[(3-morpholin-4-ylpropyl)oxy]phenyl}piperazin-1-yl)-3-ethyl-1H-pyrazolo[3,4-d]pyrimidine]?
A: IC50 ([1]; Table 1, class symbols per key): < 100 nM; IC50 ([2]; Table 1, class symbols per key): 1000 to 10000 nM

Q: Which results are given for `Cc1c(NCCN2CCCC2)cc(C(=O)N(C)C)cc1N1CCN(c2ncnc3[nH]nc(Br)c23)CC1` [Entry 198, 3-[4-(3-bromo-1H-pyrazolo[3,4-d]pyrimidin-4-yl)piperazin-1-yl]-N,N,4-trimethyl-5-[(2-pyrrolidin-1-ylethyl)amino]benzamide]?
A: IC50 ([1]; Table 1, class symbols per key): < 100 nM; IC50 ([2]; Table 1, class symbols per key): 100 to 1000 nM

Q: With `CC(=O)Nc1ccc(-c2n[nH]c3ncnc(N4CCN(c5cc(Cl)ccc5C)CC4)c23)cc1` [Entry 342, N-(4-{4-[4-(5-chloro-2-methylphenyl)piperazin-1-yl]-1H-pyrazolo[3,4-d]pyrimidin-3-yl}phenyl)acetamide] as the molecule, how does the IC50 [1] read?
A: 100 to 1000 nM

Q: And the IC50 [2]?
A: 1000 to 10000 nM

Q: How did the IC50 ([1]; Table 1, class symbols per key) turn out when `Cc1c(NCCN2CCCC2)cc(OCC2CC2)cc1N1CCN(c2ncnc3[nH]nc(Br)c23)CC1` [Entry 205, 3-[4-(3-bromo-1H-pyrazolo[3,4-d]pyrimidin-4-yl)piperazin-1-yl]-5-[(cyclopropylmethyl)oxy]-2-methyl-N-(2-pyrrolidin-1-ylethyl)aniline] was run?
A: < 100 nM

Q: And the IC50 ([2]; Table 1, class symbols per key)?
A: < 100 nM

Q: Which results are given for `Cc1ccc(Cl)cc1N1CCN(c2ncnc3[nH]nc(C)c23)CC1` [Entry 321, 4-[4-(5-chloro-2-methylphenyl)piperazin-1-yl]-3-methyl-1H-pyrazolo[3,4-d]pyrimidine]?
A: IC50 [1]: < 100 nM; IC50 [2]: 1000 to 10000 nM

Q: For `CCc1n[nH]c2ncnc(N3CCN(c4cc(Cl)cc(NCCN(C)C(C)C)c4C)CC3)c12` [Entry 146, N′-{5-chloro-3-[4-(3-ethyl-1H-pyrazolo[3,4-d]pyrimidin-4-yl)piperazin-1-yl]-2-methylphenyl}-N-methyl-N-(1-methylethyl)ethane-1,2-diamine], which IC50 ([1]; Table 1, class symbols per key) is on record?
A: < 100 nM

Q: And the IC50 ([2]; Table 1, class symbols per key)?
A: 100 to 1000 nM

Q: With `Cc1ccc(Cl)cc1N1CCN(c2ncnc3[nH]nc(C#CCN4CCN(C)CC4)c23)CC1` [Entry 398, 4-[4-(5-chloro-2-methylphenyl)piperazin-1-yl]-3-[3-(4-methylpiperazin-1-yl)prop-1-yn-1-yl]-1H-pyrazolo[3,4-d]pyrimidine] as the molecule, how does the IC50 [1] read?
A: 100 to 1000 nM

Q: What about the IC50 [2] of the same molecule?
A: 1000 to 10000 nM

Q: Which results are given for `CCc1n[nH]c2ncnc(N3CCN(c4cc(OCC(F)(CF)CF)cc(NCCN5CCCC5)c4C)CC3)c12` [Entry 256, 5-{[2,3-difluoro-2-(fluoromethyl)propyl]oxy}-3-[4-(3-ethyl-1H-pyrazolo[3,4-d]pyrimidin-4-yl)pipera-zin-1-yl]-2-methyl-N-(2-pyrrolidin-1-ylethyl)aniline]?
A: IC50 ([1]; Table 1, class symbols per key): < 100 nM; IC50 ([2]; Table 1, class symbols per key): < 100 nM

Q: What does the source list for `Cc1c(Br)cc(C(=O)Nc2ccccc2)cc1N1CCN(c2ncnc3[nH]nc(Br)c23)CC1` [Entry 191, 3-bromo-5-[4-(3-bromo-1H-pyrazolo[3,4-d]pyrimidin-4-yl)piperazin-1-yl]-4-methyl-N-phenylbenzamide]?
A: IC50 ([1]; Table 1, class symbols per key): < 100 nM; IC50 ([2]; Table 1, class symbols per key): 100 to 1000 nM

Q: Which IC50 ([1]; Table 1, class symbols per key) does the source give for `Cc1c(NCCN(C)C)cc(Cl)cc1N1CCN(c2ncnc3[nH]nc(Br)c23)CC1` [Entry 148, N′-{3-[4-(3-bromo-1H-pyrazolo[3,4-d]pyrimidin-4-yl)piperazin-1-yl]-5-chloro-2-methylphenyl}-N,N-dimethylethane-1,2-diamine] here?
A: < 100 nM

Q: What about the IC50 ([2]; Table 1, class symbols per key) of the same molecule?
A: < 100 nM

Q: What does the source list for `Cc1c(NCCN2CCCC2)cc(-c2nc(-c3ccccc3)no2)cc1N1CCN(c2ncnc3[nH]nc(Br)c23)CC1` [Entry 241, 3-[4-(3-bromo-1H-pyrazolo[3,4-d]pyrimidin-4-yl)piperazin-1-yl]-2-methyl-5-(3-phenyl-1,2,4-oxadiazol-5-yl)-N-(2-pyrrolidin-1-ylethyl)aniline]?
A: IC50 ([1]; Table 1, class symbols per key): < 100 nM; IC50 ([2]; Table 1, class symbols per key): 1000 to 10000 nM

Q: How did the IC50 ([1]; Table 1, class symbols per key) turn out when `Cc1c(NCCN2CCCC2)cc(Br)cc1N1CCN(c2ncnc3[nH]nc(Br)c23)CC1` [Entry 271, 5-bromo-3-[4-(3-bromo-1H-pyrazolo[3,4-d]pyrimidin-4-yl)piperazin-1-yl]-2-methyl-N-(2-pyrrolidin-1-ylethyl)aniline] was run?
A: < 100 nM

Q: What about the IC50 ([2]; Table 1, class symbols per key) of the same molecule?
A: < 100 nM
